# Laboratory results: patent US11396511B2, “Substituted 9,13b-dihydro-1H-dibenzo[c,f]imidazo[1,5-a]azepin-3-ylbenzamides as anti-inflammatory and analgesic agents” (FRONTBIO CO., LTD., priority 2017, dated 2022)
# Legend:
# Raw 264.7 cells [1] = assay: Cell viability measurement (MTS); assay type: cell-based
# Description: Raw 264.7 cells were plated in a 96-well cell culture plate (50,000 cells/well). The cell culture media were removed from the 96-well cell culture plate. 100 μl of MTS reagent (CellTiter 96 AQueous One Solution Cell Proliferation Assay, Promega) was added to each well and the reaction was allowed to proceed at 37° C. for 20 min. After the reaction was finished, the cell viability were determined by measuring the absorbance at a wavelength of 490 nm.
# Raw 264.7 cells [2] = assay: Measurement of NO production in LPS-stimulated Raw 264.7 cells; assay type: cell-based; settings: for inhibition at 12.5 µM / inhibition at 25 µM / inhibition at 50 µM / inhibition at 100 µM: Mus musculus, RAW264.7, LPS 100 ng/ml, 24 h
# Description: Raw 264.7 cells were plated in a 96-well cell culture plate (50,000 cells/well). Lipopolysaccharide (LPS) was diluted to 100 ng/ml and the dilution was added to the cell culture media The LPS stimulus was applied for 24 h to induce the activity of the Raw 264.7 cells and supernatants (50 μl each) obtained from the 96-well cell culture plate were plated in a new plate. 50 μl of a sulfanilamide solution was added and the reaction was allowed to proceed for 10 min. 50 μl of a NED solution was added and the reaction was allowed to proceed for 10 min. The amount of NO produced from the cells in the cell culture media was determined by measuring the absorbance at a wavelength of 540 nm.
SMILES,"cell toxicity (cell viability, MTS) (Raw 264.7 cells [1])",inhibition at 12.5 µM (Raw 264.7 cells [2]),inhibition at 25 µM (Raw 264.7 cells [2]),inhibition at 50 µM (Raw 264.7 cells [2]),inhibition at 100 µM (Raw 264.7 cells [2]; 100 μM),reduction of NO production (in words) (Raw 264.7 cells [2]; together with LPS (100 ng/ml)),"reduction of NO production (in words) (Raw 264.7 cells [2]; 100 μM, LPS (100 ng/ml))"
"CC(=O)Oc1ccccc1C(=O)O [Aspirin, acetylsalicylic acid (aspirin)]",no cell toxicities were observed,0%,0%,9.29%,12.4%,less effective in reducing the production of NO,–
"NC1=NCC2c3ccccc3Cc3ccccc3N12 (stereo not drawn) [Epinastine, epinastine]",no cell toxicities were observed,0%,5.48%,18.7%,33.4%,–,found to reduce the production of NO
O=C(O)c1ccccc1O [Salicylic acid],no cell toxicities were observed,0%,1.27%,7.18%,15.6%,less effective in reducing the production of NO,–
